In assay [1] the test system is LL/2 lung cancer tumor endothelial cells. As to the kind of experiment: Lung LL2 ex vivo model of tumor angiogenesis. The assay is classed as cell-based, mouse. The settings on record: for 48 hrs (morphology observations): LL/2 tumor endothelial cells; for Cell death: drug treatment for two days, ratio of red area to total endothelial cell area. In outline: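 Live/dead imaging with FDA and PI, taken e.g. 48 h post-drug under fixed channel settings, measures treatment effects on endothelial cells sprouting from Lewis lung tumor explants. Explants were seeded in Matrigel drops and grown ~4 days in endothelial growth medium, 37 °C, 5% CO2, before dosing.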

Assay [2] relates to CT26.CL25 colon cancer tumor endothelial cells. As to the kind of experiment: Colon CT26 ex vivo model of tumor angiogenesis. The assay is classed as cell-based, mouse. In outline:
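Cell death was read by FDA (live, green) and PI (dead, red) fluorescence imaging, e.g. 48 h after treatment. Treatment began once endothelial cells had grown out of Matrigel-embedded CT26 colon tumor fragments, typically after 7 days of culture in endothelial growth medium at 37 °C.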

The mark [3] stands for this setting: Mus musculus, Endothelial cell, 48 h, read-out: Cell death.

The structures appear in SMILES notation.

The record followed here is US20250230226A1, “PLXDC1/PLXDC2 ACTIVATORS AND THEIR USE IN THE TREATMENT OF BLOOD VESSEL DISORDERS” (THE REGENTS OF THE UNIVERSITY OF CALIFORNIA, priority 2019, published 2025).

In the case of `CCc1ccc(S(=O)(=O)c2cnc3ccc(OC(F)(F)F)cc3c2-n2cnc(C)c2)cc1` [Compound 117], the “48 hrs (morphology observations)” value in assay [1] (20 μm) is on record as “*** (more than 50% but less than 100% of endothelial cells vesicularize in cell shape)”. The cytotoxicity at 20 µM in assay [1] (setting [3]) and in assay [2] (setting [3]) was 100% throughout. Also, in assay [2] (Conc. 20 μm), the “48 hrs (morphology observations after 48 hours)” value was “*** (100% of endothelial cells vesicularize in cell shape)”.
For `CCc1ccc(S(=O)(=O)c2cnc3ccc(OC(F)(F)F)cc3c2N2CCC(N3CCCC3)CC2)cc1` [Compound 46], the “48 hrs (morphology observations)” value in assay [1] (40 μm) is “**** (100% of endothelial cells vesicularize in cell shape and look flattened in morphology (indicating disintegration of the cell body))”. For the same compound, the cytotoxicity at 40 µM in assay [1] (setting [3]) and in assay [2] (setting [3]) was 100% each time. Besides, the “48 hrs (morphology observations after 48 hours)” value in assay [2] (Conc. 40 μm) is “**** (100% of endothelial cells vesicularize in cell shape and look flattened in morphology (indicating disintegration of the cell body))”.
For `COc1ccc(S(=O)(=O)c2cnc3ccc(CC#N)cc3c2NN2CCN(C)CC2)cc1` [Compound 99], in assay [1] (40 μm), the Cell death is given as 10%. In assay [2] (Conc. 40 μm), the “48 hrs (morphology observations after 48 hours)” value came to 0. The cytotoxicity at 40 µM in assay [2] (setting [3]) was 0%.
Take `CCCCOc1ccc(S(=O)(=O)c2cnc3ccc(C(=O)OCC)cc3c2N2CCC(N3CCN(CCO)CC3)CC2)cc1` [Compound 214]: the “48 hrs (morphology observations)” value in assay [1] (40 μm) was “**** (100% of endothelial cells vesicularize in cell shape and look flattened in morphology (indicating disintegration of the cell body))”. The cytotoxicity at 40 µM in assay [1] (setting [3]) and in assay [2] (setting [3]) was 100% throughout. In assay [2] (Conc. 40 μm), the “48 hrs (morphology observations after 48 hours)” value is “**** (100% of endothelial cells vesicularize in cell shape and look flattened in morphology (indicating disintegration of the cell body))”.
In the case of `CCCCOc1ccc(S(=O)(=O)c2cnc3ccc(C(=O)NCCO)cc3c2N2CCC(N3CCCCC3)CC2)cc1` [Compound 202], the cytotoxicity at 40 µM in assay [1] (setting [3]) came to 30%; in assay [2] (setting [3]), 10%. Also, in assay [2] (Conc. 40 μm), the “48 hrs (morphology observations after 48 hours)” value was 0.
Take `COc1ccc(S(=O)(=O)c2cnc3ccc(OC(F)(F)F)cc3c2N2CCC(O)CC2)cc1OC` [Compound 58]: the “48 hrs (morphology observations)” value in assay [1] (40 μm) is 0. Besides, the cytotoxicity at 40 µM in assay [1] (setting [3]) and in assay [2] (setting [3]) was 50% in each case. The “48 hrs (morphology observations after 48 hours)” value in assay [2] (Conc. 40 μm) is “* (50% or less of cells vesicularize in cell shape)”.
On to `O=[N+]([O-])c1ccc(S(=O)(=O)c2cnc3ccc(OC(F)(F)F)cc3c2N2CCC(N3CCCCC3)CC2)cc1` [Compound 59], for which, in assay [1] (40 μm), the Cell death is on record as 40%. The “48 hrs (morphology observations after 48 hours)” value in assay [2] (Conc. 40 μm) turned out to be 0. Besides, the cytotoxicity at 40 µM in assay [2] (setting [3]) was determined as 50%.
In the case of `CCc1ccc(S(=O)(=O)c2cnc3ccc(OC(F)(F)F)cc3c2N(C)Cc2ccccc2)cc1` [Compound 49], the Cell death in assay [1] (40 μm) is 30%. The “48 hrs (morphology observations after 48 hours)” value in assay [2] (Conc. 40 μm) came out at 0. Also, in assay [2] (setting [3]), the cytotoxicity at 40 µM stood at 10%.
On to `CCc1ccc(S(=O)(=O)c2cnc3ccc([N+](=O)[O-])cc3c2N2CCCN(C)CC2)cc1` [Compound 76], for which, in assay [1] (40 μm), the “48 hrs (morphology observations)” value was 0 and the Cell death amounted to 20%. Besides, in assay [2] (Conc. 40 μm), the “48 hrs (morphology observations after 48 hours)” value was “** (more than 50% but less than 100% of endothelial cells vesicularize in cell shape)”. Besides, the cytotoxicity at 40 µM in assay [2] (setting [3]) was 100%.
With `COc1ccc(S(=O)(=O)c2cnc3ccc(OC(F)(F)F)cc3c2N2CCC(O)CC2)cc1` [Compound 44], in assay [1] (40 μm), the Cell death came to 50%. In addition, the “48 hrs (morphology observations after 48 hours)” value in assay [2] (Conc. 40 μm) worked out at 0. For the same compound, in assay [2] (setting [3]), the cytotoxicity at 40 µM is 0%.
Consider `CCCCN(CCCC)c1c(S(=O)(=O)c2ccc(CC)cc2)cnc2ccc(OC(F)(F)F)cc12` [Compound 87], for which the cytotoxicity at 40 µM in assay [1] (setting [3]) and in assay [2] (setting [3]) was 0% throughout. In addition, in assay [2] (Conc. 40 μm), the “48 hrs (morphology observations after 48 hours)” value amounted to 0.
Turning to `COc1ccc(S(=O)(=O)c2cnc3ccc(OC(F)(F)F)cc3c2N2CCC(N3CCCCC3)CC2)cc1` [Compound 43], in assay [1] (40 μm), the “48 hrs (morphology observations)” value was “*** (more than 50% but less than 100% of endothelial cells vesicularize in cell shape)” and the Cell death stood at 100%. Also, in assay [2] (Conc. 40 μm), the “48 hrs (morphology observations after 48 hours)” value was “*** (100% of endothelial cells vesicularize in cell shape)”. Also, the cytotoxicity at 40 µM in assay [2] (setting [3]) was 90%.
In the case of `CCCCCCCOc1ccc(S(=O)(=O)c2cnc3ccc([S+](C)[O-])cc3c2N2CCC(N3CCCCC3)CC2)cc1` (stereo not shown) [Compound 221], the “48 hrs (morphology observations)” value in assay [1] (40 μm) was “**** (100% of endothelial cells vesicularize in cell shape and look flattened in morphology (indicating disintegration of the cell body))”. Further, the cytotoxicity at 40 µM in assay [1] (setting [3]) and in assay [2] (setting [3]) was 100% throughout. Also, the “48 hrs (morphology observations after 48 hours)” value in assay [2] (Conc. 40 μm) was “**** (100% of endothelial cells vesicularize in cell shape and look flattened in morphology (indicating disintegration of the cell body))”.
`CCCCOc1ccc(S(=O)(=O)c2cnc3ccc(C(=O)OCC)cc3c2N2CCCN(C)CC2)cc1` [Compound 158]: the “48 hrs (morphology observations)” value in assay [1] (40 μm) is “**** (100% of endothelial cells vesicularize in cell shape and look flattened in morphology (indicating disintegration of the cell body))”. In addition, the cytotoxicity at 40 µM in assay [1] (setting [3]) and in assay [2] (setting [3]) was 100% throughout. In addition, the “48 hrs (morphology observations after 48 hours)” value in assay [2] (Conc. 40 μm) is “**** (100% of endothelial cells vesicularize in cell shape and look flattened in morphology (indicating disintegration of the cell body))”.
Regarding `CCCCOc1ccc(S(=O)(=O)c2cnc3ccc(C(=O)OCC)cc3c2N2CCC(N3CCCCC3)CC2)cc1` [Compound 157], in assay [1] (40 μm), the “48 hrs (morphology observations)” value is reported as “*** (more than 50% but less than 100% of endothelial cells vesicularize in cell shape)” and the Cell death is listed as 100%. In assay [2] (Conc. 40 μm), the “48 hrs (morphology observations after 48 hours)” value was “**** (100% of endothelial cells vesicularize in cell shape and look flattened in morphology (indicating disintegration of the cell body))”. The cytotoxicity at 40 µM in assay [2] (setting [3]) is 60%.
Consider `CCc1ccc(S(=O)(=O)c2cnc3ccc(OC(F)(F)F)cc3c2-n2cncn2)cc1` [Compound 51], for which, in assay [1] (40 μm), the “48 hrs (morphology observations)” value was “**** (100% of endothelial cells vesicularize in cell shape and look flattened in morphology (indicating disintegration of the cell body))”; the Cell death is on record as 100%. In addition, the “48 hrs (morphology observations after 48 hours)” value in assay [2] (Conc. 40 μm) is recorded as “*** (100% of endothelial cells vesicularize in cell shape)”. The cytotoxicity at 40 µM in assay [2] (setting [3]) was determined as 20%.
